Measurements as given in patent US20230416205A1, “COMPOUNDS, COMPOSITIONS, AND METHODS” (Denali Therapeutics Inc, priority 2020, published 2023).
Like-named read-outs stand apart in the source and are kept apart here.

Tested on: NLRP3
Assay: IL-1β secretion assay in PMA-differentiated, LPS/nigericin-stimulated THP-1 cells (384-well, ELISA read-out)
Format: cell-based, human
Procedure: Compounds as provided herein were tested in the following assay. Cell culture medium employed contained RPMI 1640 medium (89%), FBS (10%), Pen/Strep (1%), and 2-mercaptoethanol (0.05 mM). Freezing medium was made up of 90% FBS and 10% DMSO. THP-1 cells were removed from the liquid nitrogen and placed into a 37° C. water bath to thaw, until signs of ice dissipated. The cells were then added to 9 mL of warm cell culture medium and centrifuged for 5 minutes at 1000 rpm. The supernatant was discarded, and the cells were resuspended in new cell culture medium. THP-1 cells were then split and cultured in the cell culture medium, being passaged every 2-3 days with the cell density will be maintained between 5×10^5 and 1.5×10^6 viable cells/mL.
To freeze, cells were resuspended with fresh freezing medium, adjusting the cell density to 5×10^6 cells/mL. The cell suspension was partitioned into 1 mL aliquots per vial, and the vials were transferred to a −80° C. freezer. After one day at −80° C., the cell vials were transferred to liquid nitrogen freezer for storage.
PMA was dissolved in DMSO to make a stock solution at 5 mg/mL and stored in 10 μl aliquots at −20° C. for single use. PMA is added to normal growth medium. LPS was diluted with 1 mL of water solution to provide a 1 mg/mL stock solution and stored in 15 μl aliquots at −20° C. for single use. Nigericin is diluted in ice cold 100% ethanol to 5 mg/mL (6.7 mM) and stored in 75 μL aliquots at −20° C. for single use. Serum-free media contains RPMI 1640 medium (99%), Pen/Strep (1%), and 2-mercaptoethanol (0.05 mM). The two control conditions used to qualify and normalize test compound dose-response curves were as follows: High Control=25 ng/mL LPS, 5 μM Nigericin, 0.5% DMSO, Low Control=25 ng/mL, LPS, 0.5% DMSO.
THP-1 cells were diluted to provide a suspension at a concentration of 1.0×10^6 cells/mL with the total volume of suspension required to enable the desired number of assay plates. The growth media was supplemented with PMA (5 ng/mL final concentration) and the cells were incubated at 37° C. under a humidified atmosphere of 5% CO2 for 40 h.
All media was carefully aspirated from each culture flask. The cells were washed carefully with 1×DPBS. The cells were then briefly digested with trypsin LE for 5 minutes at 23° C., and immediately resuspended in cell growth media. After resuspension, the cells were centrifuged at 1000 rpm for 3 minutes and the supernatant was discarded. The cells were resuspended in DPBS and once again centrifuged at 1000 rpm for 5 minutes. The supernatant was discarded and the cell pellet was resuspended in serum-free media supplemented with LPS (25 ng/mL final concentration) to enable the distribution of 30K THP-1 cells within 45 μL of media into each well of 384-well PDL-coated plates. The 384-well plates were then incubated at 37° C. under a humidified atmosphere of 5% CO2 for 2 h. Following this period, test compounds were dispensed by Tecan across the desired concentration range with all wells normalized to a final 0.5% DMSO concentration. The plates were then incubated at 37° C. under a humidified atmosphere of 5% CO2 for 1 h. Following this period, 5 μL of the […] was added to each of the appropriate wells and plates were centrifuged at 1000 rpm for 30 seconds. The plates were the immediately reintroduced to the incubator at 37° C. under a humidified atmosphere of 5% CO2 for 2 h. After this time, 35 μL/well of supernatant was collected and transferred into v-bottom plate and centrifuged at 1000 rpm for 1 minute. These supernatant aliquots were analyzed using an IL-Iβ detection kit as described below. If needed, the test samples could be snap frozen and stored at −80° C. until analyzed.
To prepare each ELISA plate, capture antibody (mAb Mt175) was diluted with PBS to a final concentration of 2 μg/mL and then 20 μL of this solution was added to each well of the ELISA plate. Each plate was allowed to incubate overnight at 4° C.

[1] = Homo sapiens, THP-1, IL-1β secretion, PMA-differentiated THP-1 cells, LPS then nigericin stimulation, ELISA read at 450 nm, read-out: Activity
[2] = Homo sapiens, THP-1, Table 4, IL-1β secretion, LPS/nigericin-stimulated THP-1 cells, read-out: IC50
[3] = Table 4, IL-1β secretion, LPS/nigericin-stimulated THP-1 cells, read-out: IC50

Compound: N#CC12CC(NC(=O)CN3CC4(CC4)c4cc(Br)ccc4C3=O)(C1)C2 [Example 14, 2-(6-bromo-1-oxospiro[3H-isoquinoline-4,1′-cyclopropane]-2-yl)-N-(3-cyano-1-bicyclo[1.1.1]pentanyl)acetamide]
- IC50 [1]: < 10 µM
- IC50 [2]: 3.12 µM

Compound: O=C(CN1CC2(CC2)c2cc(Br)ccc2C1=O)Nc1ccc2nccn2n1 [Example 180, 2-(6-bromo-1-oxospiro[3H-isoquinoline-4,1′-cyclopropane]-2-yl)-N-imidazo[1,2-b]pyridazin-6-ylacetamide]
- IC50 [1]: < 10 µM
- IC50 [2]: 0.508 µM

Compound: O=C(CN1CC(C(F)(F)F)c2c(ccc(Br)c2F)C1=O)Nc1ncc(F)cn1 (single isomer, unassigned) [Example 297, 2-[6-bromo-5-fluoro-1-oxo-4-(trifluoromethyl)-3,4-dihydroisoquinolin-2-yl]-N-(5-fluoropyrimidin-2-yl)acetamide]
- IC50 [1]: 10 to 15 µM
- IC50 [3]: 14.4 µM

Compound: O=C(CN1CC2(CC2)c2cc(Br)ccc2C1=O)Nc1ccnn1-c1ccccc1 [Example 152, 2-(6-bromo-1-oxospiro[3H-isoquinoline-4,1′-cyclopropane]-2-yl)-N-(2-phenylpyrazol-3-yl)acetamide]
- IC50 [1]: > 15 µM
- IC50 [2]: 21.6 µM

Compound: Cc1cc(NC(=O)CN2CC3(CC3)c3cc(Br)ccc3C2=O)nc(C)n1 [Example 216, 2-(6-bromo-1-oxospiro[3H-isoquinoline-4,1′-cyclopropane]-2-yl)-N-(2,6-dimethylpyrimidin-4-yl)acetamide]
- IC50 [1]: < 10 µM
- IC50 [2]: 3.98 µM

Compound: O=C(CN1CC2(CC2)c2cc(Br)ccc2C1=O)N1Cc2cccnc2C1 [Example 125, 6-bromo-2-[2-(5,7-dihydropyrrolo[3,4-b]pyridin-6-yl)-2-oxoethyl]spiro[3H-isoquinoline-4,1′-cyclopropane]-1-one]
- IC50 [1]: > 15 µM
- IC50 [2]: 26.7 µM

Compound: O=C(CN1CC2(CC2)c2cc(Br)ccc2C1=O)Nc1nc2ccccn2c1F [Example 343, 2-(6-bromo-1-oxospiro[3H-isoquinoline-4,1′-cyclopropane]-2-yl)-N-(3-fluoroimidazo[1,2-a]pyridin-2-yl)acetamide]
- IC50 [2]: 7.5 µM

Compound: O=C(CN1C[C@@]2(C[C@@H]2F)c2c(ccc(C3CC3)c2F)C1=O)Nc1ncc(Cl)cn1 (single isomer, unassigned) [Example 229, 2-[(2′s,4r)-6-cyclopropyl-2′,5-difluoro-1-oxospiro[3H-isoquinoline-4,1′-cyclopropane]-2-yl]-N-(5-chloropyrimidin-2-yl)acetamide]
- IC50 [1]: < 10 µM
- IC50 [2]: 0.032 µM

Compound: Cc1nc2ccc(NC(=O)CN3CC4(CC4)c4cc(Br)ccc4C3=O)cc2s1 [Example 143, 2-(6-bromo-1-oxospiro[3H-isoquinoline-4,1′-cyclopropane]-2-yl)-N-(2-methyl-1,3-benzothiazol-6-yl)acetamide]
- IC50 [1]: < 10 µM
- IC50 [2]: 1.41 µM

Compound: N#Cc1cc(F)c(NC(=O)CN2CC3(CC3)c3cc(Br)ccc3C2=O)cn1 [Example 345, 2-(6-bromo-1-oxospiro[3H-isoquinoline-4,1′-cyclopropane]-2-yl)-N-(6-cyano-4-fluoropyridin-3-yl)acetamide]
- IC50 [2]: 15.1 µM

Compound: O=C(CN1CC2(CC2)c2cc(Br)ccc2C1=O)Nc1cn2ccccc2n1 [Example 385]
- IC50 [2]: 1.82 µM

Compound: O=C(CN1CC2(COC2)c2cc(Br)ccc2C1=O)Nc1ncccn1 [Example 92, 2-(6-bromo-1-oxospiro[3H-isoquinoline-4,3′-oxetane]-2-yl)-N-pyrimidin-2-ylacetamide]
- IC50 [1]: < 10 µM
- IC50 [2]: 4.46 µM

Compound: C[C@H]1C[C@@]12CN(CC(=O)Nc1ncc(F)cn1)C(=O)c1ccc(Br)cc12 (single isomer, unassigned) [Example 281, 2-[(2′s,4r)-6-bromo-2′-methyl-1-oxospiro[3H-isoquinoline-4,1′-cyclopropane]-2-yl]-N-(5-fluoropyrimidin-2-yl)acetamide]
- IC50 [1]: < 10 µM
- IC50 [3]: 0.108 µM

Compound: O=C(CN1CC2(CC2)c2c(ccc(Cl)c2F)C1=O)Nc1ncc(F)cn1 [Example 98, 2-(6-chloro-5-fluoro-1-oxospiro[3H-isoquinoline-4,1′-cyclopropane]-2-yl)-N-(5-fluoropyrimidin-2-yl)acetamide]
- IC50 [1]: < 10 µM
- IC50 [2]: 0.349 µM

Compound: O=C(CN1CC2(CC2)c2c(ccc(Br)c2F)C1=O)Nc1ncc(F)cn1 [Example 41, 2-(6-bromo-5-fluoro-1-oxo-spiro[3H-isoquinoline-4,1′-cyclopropane]-2-yl)-N-(5-fluoropyrimidin-2-yl)acetamide]
- IC50 [1]: < 10 µM
- IC50 [2]: 0.068 µM

Compound: O=C(CN1C[C@@]2(C[C@@H]2F)c2c(ccc(Br)c2F)C1=O)Nc1ncc(F)cn1 (single isomer, unassigned) [Example 220, 2-[(2′s,4r)-6-bromo-2′,5-difluoro-1-oxospiro[3H-isoquinoline-4,1′-cyclopropane]-2-yl]-N-(5-fluoropyrimidin-2-yl)acetamide]
- IC50 [1]: < 10 µM
- IC50 [2]: 0.02 µM

Compound: O=C(CN1CC2(CC2)c2cc(Br)ccc2C1=O)Nc1ccc2cnccc2n1 [Example 206, 2-(6-bromo-1-oxospiro[3H-isoquinoline-4,1′-cyclopropane]-2-yl)-N-(1,6-naphthyridin-2-yl)acetamide]
- IC50 [1]: < 10 µM
- IC50 [2]: 1.26 µM

Compound: O=C(CN1CC2(CC2)c2cc(Br)ccc2C1=O)NC12CC(C(F)(F)F)(C1)C2 [Example 13, 2-(6-bromo-1-oxospiro[3H-isoquinoline-4,1′-cyclopropane]-2-yl)-N-[3-(trifluoromethyl)-1-bicyclo[1.1.1]pentanyl]acetamide]
- IC50 [1]: < 10 µM
- IC50 [2]: 1.75 µM

Compound: O=C(CN1CC2(CC2)c2cc(OCF)ccc2C1=O)Nc1ncccn1 [Example 82, 2-[6-(fluoromethoxy)-1-oxospiro[3H-isoquinoline-4,1′-cyclopropane]-2-yl]-N-pyrimidin-2-ylacetamide]
- IC50 [1]: < 10 µM
- IC50 [2]: 2.22 µM

Compound: O=C(CN1CC2(CC2)c2cc(Br)ccc2C1=O)Nc1cnc2[nH]ccc2c1 [Example 156, 2-(6-bromo-1-oxospiro[3H-isoquinoline-4,1′-cyclopropane]-2-yl)-N-(1H-pyrrolo[2,3-b]pyridin-5-yl)acetamide]
- IC50 [1]: < 10 µM
- IC50 [2]: 4.39 µM

Compound: N#Cc1cnc(NC(=O)CN2CC3(CC3(F)F)c3c(ccc(Br)c3F)C2=O)nc1 (single isomer, unassigned) [Example 319, 2-[6-bromo-1′,1′,5-trifluoro-1-oxospiro[3H-isoquinoline-4,2′-cyclopropane]-2-yl]-N-(5-cyanopyrimidin-2-yl)acetamide]
- IC50 [3]: 3.05 µM

Compound: COCC1CC(NC(=O)CN2CC3(CC3)c3cc(Br)ccc3C2=O)C1 (stereo not drawn) [Example 382, 2-(6-bromo-1-oxospiro[3H-isoquinoline-4,1′-cyclopropane]-2-yl)-N-[3-(methoxymethyl)cyclobutyl]acetamide]
- IC50 [2]: 8.79 µM

Compound: O=C(CN1CC2(CC2)c2cc(Br)ccc2C1=O)NC1CCN(c2ncccn2)CC1 [Example 380, 2-(6-bromo-1-oxospiro[3H-isoquinoline-4,1′-cyclopropane]-2-yl)-N-(1-pyrimidin-2-ylpiperidin-4-yl)acetamide]
- IC50 [2]: 11.4 µM

Compound: CN1CC(NC(=O)CN2CC3(CC3)c3cc(Br)ccc3C2=O)CC1=O (stereo not drawn) [Example 59, 2-(6-bromo-1-oxo-spiro[3H-isoquinoline-4,1′-cyclopropane]-2-yl)-N-(1-methyl-5-oxo-pyrrolidin-3-yl)acetamide]
- IC50 [1]: > 15 µM
- IC50 [2]: 18.3 µM
